In patent US11597708B2, “Inhibitors of heat shock factors and uses thereof” (HSF Pharmaceuticals SA, priority 2016, dated 2023):

Experiments:
LexA-hHSF = target: T1, LexA-hHSF (Homo sapiens, UniProt Q00613); assay: Z74 cell-based reporter assay: heat-induced FLuc expression controlled by chimeric LexA-HSF1; conditions: IHSF 001 tested at 25 μM
T1 construct: expressed in transfected cells; the other entry of the earlier key: lexA (P0A7C2, LexA repressor)
T1 sequence (Q00613 with tags, fused parts or gaps): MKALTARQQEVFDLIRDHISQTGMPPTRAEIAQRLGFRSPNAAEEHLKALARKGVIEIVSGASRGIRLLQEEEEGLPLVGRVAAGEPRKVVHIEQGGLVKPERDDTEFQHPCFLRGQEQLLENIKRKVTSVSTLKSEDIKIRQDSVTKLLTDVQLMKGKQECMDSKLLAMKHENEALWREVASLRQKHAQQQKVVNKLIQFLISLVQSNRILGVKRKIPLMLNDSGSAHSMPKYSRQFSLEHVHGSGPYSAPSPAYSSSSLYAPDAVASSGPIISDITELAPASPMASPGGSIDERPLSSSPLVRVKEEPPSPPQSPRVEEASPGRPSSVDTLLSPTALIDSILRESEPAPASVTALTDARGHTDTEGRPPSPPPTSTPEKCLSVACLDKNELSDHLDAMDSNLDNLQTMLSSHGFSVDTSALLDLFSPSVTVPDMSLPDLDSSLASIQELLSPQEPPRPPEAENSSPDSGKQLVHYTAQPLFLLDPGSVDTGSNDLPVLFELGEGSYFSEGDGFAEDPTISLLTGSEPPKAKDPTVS
From the text: For screening this sublibrary, a cell-based assay was developed. We opted for a cell-based assay, because a cell-free assay would have had to be a DNA-binding assay. Such an assay would have limited discovery to molecules capable of interfering with the DNA-binding function of HSF1. This was thought to be too narrow a focus, considering that three of the four cavities identified in the HSF1 DNA-binding domain are not near the DNA interaction region. A straightforward cell-based assay, in which a HSF1-responsive gene would be assayed, was considered likely to be over-inclusive. Compounds would be scored as hits that inhibit any factor that is involved in HSF1 activation or prevents HSF1 deactivation. These factors include protein kinases, activators of protein phosphatases, factors affecting HSF1 mRNA stability, HSP90, HDAC6, etc. For developing a more discriminating cell-based assay, advantage was taken of the modular nature of HSF1. […] The cell-based assay developed (see below for the particular format employed) compared transactivation by wild type HSF1 and chimeric HSF1 in cells exposed to an HSF1-activating heat treatment in the presence of a sublibrary compound. A compound was scored as a hit, if it inhibited the activity of wild type HSF1 but not of chimeric HSF1.
The cell-based assay made use of HeLa-derived cell line Z74 that stably contains a gene for chimeric transcription factor LexA-(human) HSF1 under the control of a CMV early promoter, a firefly luciferase (flue) gene driven by a promoter responsive to the latter chimeric transcription factor and a Renilla luciferase (rluc) gene functionally linked to an hsp70b promoter and therefore controlled by endogenous HSF1 (FIG. 1A). As is shown in FIGS. 1B & C, the reporter genes responded similarly to heat dose, i.e., their activation depended on both duration of heat exposure and temperature of the exposure. […] Depletion of HSF1 (and LexA-HSF1) by siRNA supported the notion that this stress regulation is mediated by HSF1 (and LexA-HSF1). Therefore, the Z74 line was well suited for use in a screening assay aimed at discovering molecules that inhibit heat-induced HSF1 activity through interaction with the transcription factor's DNA-binding domain.
The compounds of the afore-mentioned biased sublibrary were screened in cell line Z74 at 12.5 and 25 μM concentrations. Typically, Z74 cultures in 96-well plates were exposed to compound or vehicle for 2 h, heat-treated at 43.0° C. for 30 min, and incubated further for 6 h at 37° C. to allow for accumulation of the luciferases. RLuc and FLuc activities were determined, typically using the Dual-Glo® Luciferase Assay System (Promega Corp., Madison, Wis.), and reading luciferase light counts in a Wallac Microbeta Trilux-1450 Luminometer (PerkinElmer, Waltham, Mass.). IHSF 001 was one of two library compounds that inhibited RLuc expression but not FLuc expression in heat-treated Z74 cells (Table 1; FIG. 2A). Therefore, IHSF 001 is an inhibitor of HSF1 function that specifically acts through the HSF1 DNA-binding domain. […] A corroborating experiment utilized a cell line containing an hsp70b promoter-driven fluc gene. […] IHSF 001 is (E)-ethyl 4-oxo-4-(thiazol-2-ylamino)but-2-enoate. The compound can be obtained from commercial sources (e.g., AKE-PB-90340538, Akos).

HeLa cells = assay: Trypan Blue staining, live and necrotic cells; assay type: cell-based, human
Method: FIG. 6. (A) HeLa cell cultures were mock-exposed (−) or exposed to the indicated concentrations of compound 115 for 24 (left panel) or 96 (right panel) hours. Cell viability of total cultures, floating cells and attached cells was assayed using an Alamar Blue assay. (B) HeLa cell cultures were mock-exposed (−) or exposed to the indicated concentrations of compound 115 for 15-96 hours. Trypan Blue dye exclusion was employed to determine numbers of live cells (left panel) and relative levels of necrotic cells (right panel). (C) HeLa cell cultures were mock-exposed (−) or exposed to the indicated concentrations of compound 115 for 6 and 24 h. Shown are relative levels of early apoptotic cells (annexin-positive, 7 aminoactinomycin D-negative). (D) Flow cytometric analysis of DNA of HeLa cell cultures mock-exposed (−) or exposed to the indicated concentrations of compound 115 for 6, 15 and 24 hours. Relative levels of apoptotic cells are indicated.
Further studies were aimed at finding out whether IHSF-exposed cancer cells were only growth-arrested or were actually killed and, if they were killed, by what mechanism. […] The viability signal (in whole cultures and, more dramatically, when only attached cells were analyzed) decreased as a function of IHSF concentration. […] Stained (necrotic) and unstained (live) cells were counted (FIG. 6B). […]

**Q.** CCOC(=O)/C=C/C(=O)Nc1nccs1 [IHSF 001, (E)-ethyl 4-oxo-4-(thiazol-2-ylamino)but-2-enoate] was tested. Which inhibition at 25 µM (LexA-hHSF; Experiment No. 1) did it give?
**A.** 3%

**Q.** What about the inhibition at 25 µM (LexA-hHSF; Experiment No. 2) of the same compound?
**A.** 0%

**Q.** What about the inhibition at 25 µM (LexA-hHSF; Experiment No. 3) of the same compound?
**A.** 0%

**Q.** What about the inhibition at 25 µM (LexA-hHSF; Experiment No. 4) of the same compound?
**A.** 0%

**Q.** What about the inhibition at 25 µM (LexA-hHSF; Experiment No. 5) of the same compound?
**A.** 0%

**Q.** And the inhibition at 25 µM (LexA-hHSF; Experiment No. 6)?
**A.** 0%

**Q.** What about the inhibition at 25 µM (LexA-hHSF; Experiment No. 7) of the same compound?
**A.** 0%

**Q.** What about the inhibition at 25 µM (LexA-hHSF; Experiment No. 8) of the same compound?
**A.** 0%

**Q.** And the inhibition at 25 µM (LexA-hHSF; Experiment No. 9)?
**A.** 15%

**Q.** With CN(C(=O)/C=C/C1=NCCCO1)c1ncc(-c2cccnc2)s1 [IHSF 115, (E)-3-(5,6-Dihydro-4H-[1,3]oxazin-2-yl)-N-methyl-N-(5-pyridin-3-yl-thiazol-2-yl)-acrylamide] as the compound, how does the “necrotic HeLa cells (Trypan Blue)” value (HeLa cells; 15-hour exposure to 3.125 μM) read?
**A.** increase in necrotic cells was already apparent

**Q.** What about the “numbers of live and necrotic HeLa cells (Trypan Blue)” value (HeLa cells; exposure for 15, 24 and 96 hours) of the same compound?
**A.** caused numbers of live cells to decrease and numbers of necrotic cells to increase in a concentration- and time-dependent fashion
